“Also recorded” adds a separate entry of the source. Where two headings read alike, the source gives them in different places.
Key:
[1] = system: Glioblastoma multiforme (GBM) cells (T98-G); experiment: Induction of apoptosis in cultured glioblastoma multiforme cells (microscopy); format: cell-based, human; settings: for induction of apoptosis in GBM cells: T98-G cells, 50 and 100 μM, three days, compared to vehicle control
Protocol: FIG. 2 depicts a novel quinazoline derivative (Compound 1:6-Pyridin-2-yl -5,6-dihydro-benzo[4,5]imidazo[1,2-c]quinazoline) that induces apoptosis in Glioblastoma (GBM) cells. Cells were treated with different concentrations of Compound 1 (0.1, 1, 10, 50, 100μ) or vehicle (control).
(§1) Glioblastoma multiforme (GBM) cells (T98-G) were cultured in 6 wells for ˜90% confluent. Cells were treated with different concentrations of Compound 1 (0.1, 1, 10, 50, 100μ) or vehicle (control). […] Cell viability was tested by trypan blue exclusion assay.
(§2) GBM cell line T98-G (ATCC-CRL-1690) was obtained and authenticated by the American Type Culture Collection (Cat #30-2003; ATCC, Manassas, VA). Cells were cultured and maintained in low glucose Dulbecco's Modified Eagle Medium (DMEM) (Thermo Fisher Scientific) supplemented with 10% fetal bovine serum (FBS, Thermo Fisher Scientific) at 37° C. in a 5% CO2 humidified atmosphere and passed in less than 6 months. Human neuroblastoma cells. Human SH-SY5Y neuroblastoma cells (Sigma-Aldrich) were cultured in 45% F12K, 45% Modified Eagle Medium (MEM), supplemented with 10% FBS in tissue culture incubator (37° C., 5% CO2, 90% humidity). Primary skin fibroblasts. Primary skin fibroblasts were obtained from the Coriell Institute for Medical Research (Camden, NJ; Cat #AG09555; the Aging Cell Culture Repository of the National Institute on Aging) and maintained in DMEM with low glucose (Invitrogen, Grand Island, NY) supplemented with 10% FBS in 6-well culture plates (37° C., 5% CO2, 90% humidity) until reaching 90-100% confluence. In addition, cells were treated with either vehicle, 50, and 100 μM quinazoline derivatives and propentofylline. The condition of the cultured cells was monitored with an inverted cell culture microscope (Westover Digital AMID Model 2000, Westover Scientific, Bothell, WA), controlled by a computer, and images were captured with image acquisition software (Micron 2.0.0, Westover Scientific).

[2] = system: Glioblastoma multiforme (GBM) cells (T98-G); experiment: Cell viability by trypan blue exclusion assay; format: cell-based, human; settings: 50 and 100 μM, 3 days
Protocol: FIG. 3 depicts concentration dependence cell viability of human glioblastoma multiforme (GBM) cells by novel quinazoline derivative (Compound 1: 6-Pyridin-2-yl-5,6-dihydro-benzo[4,5]imidazo[1,2-c]quinazoline).
as §1
as §2, with “Primary skin fibroblasts were obtained from the Coriell Institute for Medical Research (Camden, NJ; Cat #AG09555; the Aging Cell Culture Repository of the National Institute on Aging) and maintained in DMEM with low glucose (Invitrogen, Grand Island, NY) supplemented with 10% FBS in 6-well culture plates (37° C., 5% CO2, 90% humidity) until reaching 90-100% confluence. In addition, cells were treated with either vehicle, 50, and 100 μM quinazoline derivatives and propentofylline.” left out

GBM cells [3] = experiment: Model tumor spheroid assay: GBM cell invasion in three-dimensional Matrigel matrix; format: cell-based, human; settings: 3D Matrigel matrix; for invasive cells in multicellular spheroids: 50 μM
Excerpt: FIG. 5 depicts the Human glioblastoma multiforme (GBM) cell invasion in a three-dimensional Matrigel basement membrane. Model Tumor Spheroid assay: GBM cells form a spheroid tumor-like biological entity in three-dimensional space. Proliferation and invasion of GBM in 3-dimensional Matrigel matrix in 5 days (A) and 12 days (B). Arrows indicate invasive cells in model tumor spheroids. The proliferation and invasion of GBM in a three-dimensional Matrigel matrix have been studied for days. […] Arrows indicate invasive cells.
GBM cells were incubated in a previously prepared 3-dimensional Matrigel matrix. Multicellular spheroids were formed after three days of incubation. The mechanical properties of cell invasion of patient-derived primary glioblastoma cells have been studied recently in 3-D matrigel matric (Grundy et al., 2016). Cellular invasiveness was monitored in multicellular spheroids of GBM embedded in 3D matrigel matric (FIG. 5).

integrin β1 (CD29) = experiment: Western blot of integrin β1 levels in GBM cells; format: cell-based, human; settings: normalized with β-tubulin, similar concentrations
Excerpt: FIG. 6 depicts a novel quinazoline derivative (Compound 1:-Pyridin-2-yl -5,6-dihydro-benzo[4,5]imidazo[1,2-c]quinazoline) that decreases glioblastoma cell invasion by decreasing integrin β1 (CD29) levels. Intergrin β1 band decreased in Western blot analyses both in normal culture (A), and serum-free condition (B) by the treatment of compound 1. Propentofylline treatment produces reverse effects (A). Relative expression levels of integrin β1 is normalized with β-tubulin as a loading control in Western blot analyses. […] Standard Error of Mean (SEM) is calculated from three independent measurements.
Integrins have an important role to play in cell invasion in tumorigenic environments. […] We also compared the effectiveness of reducing β1 integrin level with propentofylline in the same concentration. […] Deletion of β1 integrin reduced tumorigenesis in in-vivo xenograft tumor growth animal model (Hou et al., 2016).
Reagents and antibodies: Propentofylline (molecular weight 306.366; [1-(5O-oxohexyl)-3-methyl-7-propylxanthine) was purchased from Sigma-Aldrich (St. Louis). Propentofylline and synthetic quinazoline derivatives were dissolved in DMSO (30-60 mM, depending on solubility). Aliquots were stored at −20 C. Stock solutions were dissolved in a culture medium at different concentrations just before each experiment. Rabbit monoclonal anti-Integrin beta 1 [CD29] antibody (Cat #04-1109) was purchased from Millipore (Temecula, CA). Anti-tubulin III antibody (Cat #79-720) was purchased from ProSci (Poway, CA). Antibody for PKCε (C-15) (Santa Cruz Biotechnology, Santa Cruz, CA; Cat No: sc-214) was used to detect PKCε and has been recommended for detection of PKCε of human origin by western blotting and immunofluorescence analysis by the manufacturer. Quinazoline derivatives were synthesized in the laboratory.

PKCε = molecular target: T1, PKCε (Homo sapiens, UniProt Q02156); experiment: PKCε activity (membrane/cytosol ratio) in neuroblastoma cells; format: cell-based; settings: SHSY5Y cells
T1 construct: host or cells: SH-SY5Y human neuroblastoma cells
T1 sequence (Q02156 1-737): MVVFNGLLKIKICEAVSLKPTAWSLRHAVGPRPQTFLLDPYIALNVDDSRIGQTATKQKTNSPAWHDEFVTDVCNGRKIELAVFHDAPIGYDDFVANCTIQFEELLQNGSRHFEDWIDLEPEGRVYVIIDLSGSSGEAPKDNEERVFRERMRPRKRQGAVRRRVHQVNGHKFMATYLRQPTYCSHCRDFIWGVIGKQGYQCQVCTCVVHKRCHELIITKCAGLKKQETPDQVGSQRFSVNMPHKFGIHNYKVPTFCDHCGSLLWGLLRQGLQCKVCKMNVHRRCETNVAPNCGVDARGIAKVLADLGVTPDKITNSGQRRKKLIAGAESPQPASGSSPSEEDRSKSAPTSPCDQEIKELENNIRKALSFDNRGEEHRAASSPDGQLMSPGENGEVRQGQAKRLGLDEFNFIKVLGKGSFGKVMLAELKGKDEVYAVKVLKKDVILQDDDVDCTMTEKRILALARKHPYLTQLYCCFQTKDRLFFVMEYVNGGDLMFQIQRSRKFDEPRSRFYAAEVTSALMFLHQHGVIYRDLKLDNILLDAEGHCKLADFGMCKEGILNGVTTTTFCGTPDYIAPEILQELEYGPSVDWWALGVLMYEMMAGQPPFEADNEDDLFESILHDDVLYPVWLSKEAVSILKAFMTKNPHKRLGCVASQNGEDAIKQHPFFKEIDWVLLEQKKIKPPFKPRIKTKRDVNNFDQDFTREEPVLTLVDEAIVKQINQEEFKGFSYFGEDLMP
Protocol: FIG. 7 depicts how novel quinazoline derivative decreases oncogenic PKCε activity in neuroblastoma cells. C=concentration of PKCε in cytosol fraction, and M=concentration of PKCε in membrane fraction of cells. PKCε activity was measured as the ratio of the concentration in the membrane and cytosol fraction.
Novel quinazoline derivative decreases oncogenic PKCepsilon (PKCε) activity in neuroblastoma cells (FIG. 7). We tested whether novel quinazoline derivatives can decrease oncogenic PKCε activity. […] Oncogenic PKCε is a survival kinase for GBM cells (Okhrimentko et al., 2005).
GBM cell line T98-G (ATCC-CRL-1690) was obtained and authenticated by the American Type Culture Collection (Cat #30-2003; ATCC, Manassas, VA). Cells were cultured and maintained in low glucose Dulbecco's Modified Eagle Medium (DMEM) (Thermo Fisher Scientific) supplemented with 10% fetal bovine serum (FBS, Thermo Fisher Scientific) at 37° C. in a 5% CO2 humidified atmosphere and passed in less than 6 months. Human neuroblastoma cells. […] The condition of the cultured cells was monitored with an inverted cell culture microscope (Westover Digital AMID Model 2000, Westover Scientific, Bothell, WA), controlled by a computer, and images were captured with image acquisition software (Micron 2.0.0, Westover Scientific). […]

[4] = system: human normal primary skin fibroblasts; experiment: Toxicity to cultured normal primary skin fibroblasts; format: cell-based
Protocol: FIG. 8 depicts the non-toxicity of Compound 1.
Insignificant toxicity was found for the quinazoline derivative (Compound 1): One quinazoline derivative (Compound 1) was non-toxic to cultured normal primary skin fibroblasts isolated from healthy individuals (FIG. 8). After three days of continuous treatment by 100 μM Compound 1, there was no cell death.
GBM cell line T98-G (ATCC-CRL-1690) was obtained and authenticated by the American Type Culture Collection (Cat #30-2003; ATCC, Manassas, VA). Cells were cultured and maintained in low glucose Dulbecco's Modified Eagle Medium (DMEM) (Thermo Fisher Scientific) supplemented with 10% fetal bovine serum (FBS, Thermo Fisher Scientific) at 37° C. in a 5% CO2 humidified atmosphere and passed in less than 6 months. Human neuroblastoma cells. Human SH-SY5Y neuroblastoma cells (Sigma-Aldrich) were cultured in 45% F12K, 45% Modified Eagle Medium (MEM), supplemented with 10% FBS in tissue culture incubator (37° C., 5% CO2, 90% humidity). Primary skin fibroblasts. […] The condition of the cultured cells was monitored with an inverted cell culture microscope (Westover Digital AMID Model 2000, Westover Scientific, Bothell, WA), controlled by a computer, and images were captured with image acquisition software (Micron 2.0.0, Westover Scientific).

[5] = system: Glioblastoma multiforme (GBM); settings: cited from earlier work
GBM cells [6] = settings: 2012, cited from earlier work; for GBM cell invasion and survival: Dhruv et al., 2016, Jacob et al.

Molecule: c1ccc(C2Nc3ccccc3-c3nc4ccccc4n32)nc1 (centres unmarked) [Compound 1, 6-Pyridin-2-yl-5,6-dihydro-benzo[4,5]imidazo[1,2-c]quinazoline]
- potency for inducing apoptosis / inhibiting GBM survival compared with Propentofylline ([1]; GBM cells, FIG. 4): more potent for inhibiting GBM survival than Propentofylline; also recorded: more potent than Propentofylline to induce apoptosis
- induction of apoptosis in GBM cells [1]: induced significant apoptosis; also recorded: induce apoptosis; also recorded: caused significant apoptosis
- cell viability (trypan blue exclusion) [2]: Cell viability was reduced
- invasive cells in multicellular spheroids (GBM cells [3]): no invasive cells
- potency for reducing tumor size and cell invasion compared with Propentofylline (GBM cells [3]; 5th day): more potent than Propentofylline in terms of reducing tumor size and cell invasion; also recorded: more potent inhibitor of GBM cell invasion
- integrin β1 expression level (integrin β1 (CD29)): significantly decreases integrin β1 expression level; also recorded: decreasing β1 integrin (CD29) levels; also recorded: significantly reduced expression levels of β1-Integrin
- PKCε activity (ratio of concentration in membrane and cytosol fraction) (PKCε): significantly decreased the PKCε activity
- cell death of primary skin fibroblasts ([4]; 100 μM, three days of continuous treatment): no noticeable cell death
- toxicity to primary human skin fibroblasts ([4]; cultured normal primary skin fibroblasts from healthy individuals): non-toxic

Molecule: Cn1nnc2c(C(N)=O)ncn2c1=O [TMZ, temozolomide]
- common side effects ([5]; patients): bone marrow suppression, genotoxic, and teratogenic

Molecule: Bevacizumab: FDA-approved immunotherapeutic agent; therapeutic antibody (Genentech)
- progression-free survival at 6 months ([5]; GBM patients, % of cases): 36%
- overall survival ([5]; GBM patients): 9.3 months
- gastrointestinal perforation ([5]; human, in vivo): 1.5-5.4%
- hypertension ([5]; human, in vivo): 5.5-11.4%
- proteinuria ([5]; human, in vivo): 2.7-11.4%
- thromboembolic events ([5]; human, in vivo): 3.2-11.9%
- wound healing complications ([5]; human, in vivo): 0.8-3.3%
- patients who developed therapeutic resistance ([5]; phase II clinical trial (Vredenburgh et al., 2007)): 40%

Molecule: c1c[nH]c(-c2nc3ccccc3c3nc4ccccc4n23)c1 [Compound 7, 6-(1H-Pyrrol-2-yl)-benzo[4,5]imidazo[1,2-c]quinazoline]
- induction of apoptosis in GBM cells [1]: caused significant apoptosis

Molecule: CCCn1cnc2c1c(=O)n(CCCCC(C)=O)c(=O)n2C [Propentofylline, 1-(5O-oxohexyl)-3-methyl-7-propylxanthine]
- induction of apoptosis in GBM cells [1]: did not induce apoptosis
- invasive cells in multicellular spheroids (GBM cells [3]): Invasive cells were sprouting outside of the spheroid
- integrin β1 expression level (integrin β1 (CD29)): not able to reduce β1 integrin level
- integrin β1 expression level (integrin β1 (CD29); listed as propentofylline): significantly increases integrin β1 expression levels; also recorded: increased expression levels of β1-Integrin
- GBM cell invasion and survival (GBM cells [6]): decreasing GBM cell invasion and survival
- GBM cell invasion and survival (GBM cells [6]; listed as propentofylline): decreased GBM cell invasion; also recorded: inhibits GBM survival
- induction of apoptosis in GBM cells (GBM cells [6]; Jacobs et al.): ineffective inducing apoptosis

— patent US20250177400A1, “METHODS OF THERAPEUTICS DEVELOPMENT OF GLIOBLASTOMA MULTIFORME BY QUINAZOLINE DERIVATIVES AND THEREOF” (priority 2023, published 2025)
